From PubChem BioAssay AID179 (DTP/NCI, 2004) come the findings set out here.

What is called EC50 is the concentration giving half of the maximal effect. What is called IC50 is the point on the concentration scale where inhibition reaches its midpoint.

The subject of this experiment is CEM cells HIV-1 protection, formazan growth assay. The experiment can be described thus: NCI AIDS Antiviral Assay. As to conditions: for IC50: measured here: growth of uninfected CEM cells. The method, then: The ability of compounds to protect human CEM cells from HIV-1 infection is measured as a screen for new compounds capable of inhibiting the HIV virus. Five concentrations of drug were tested on uninfected and infected cells and cell growth was measured using a soluble formazan assay. […] Compounds that provided at least 50% protection were retested. Compounds that provided at least 50% protection on retest were listed as moderately active. Compounds that reproducibly provided 100% protection were listed as confirmed active. […] Note that the inability to provide protection could be due to toxicity.

Structures are written as SMILES. “And” between values parts separate entries of the source, which are not always exact repeats. Identical values can stand only once. The source made the active and inactive calls.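 Rule for the calls: active = compounds giving half or more protection of infected cells from virus-caused growth loss, again on retest; inactive = the rest.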

Regarding `COc1cc(OC)cc(N(C)Cc2cnc3nc(N)nc(N)c3c2C)c1`, the EC50 was > 200 µM and the IC50 was found to be 0.138 µM. As for `O=C(Nc1ccc(N=Nc2ccccc2)cc1)Sc1ccccc1C(=O)O`, the result was inactive.

`O=[N+]([O-])c1ccc(C2N3CCCCC3[C@H]3CCCCN23)cc1` (some centres not stated): the EC50 was > 24 µM and the IC50 was > 24 µM. `CN(C)C1=CC(=O)C(=O)c2cnc(N(C)C)cc21`: the outcome was inactive. With `N#Cc1c(-c2ccccc2)cc(-c2ccccc2)[nH]c1=O`, the EC50 was > 36.3 µM and the IC50 was > 36.3 µM.

Take `O=C1c2cc(-c3ccccc3)cnc2S(=O)(=O)N1c1ccc(Br)cc1`: the EC50 was > 200 µM and the IC50 came to 16.6 µM. Consider `COC(=O)CCC(=O)Nc1cc(C)ccc1C`, for which the EC50 was > 1070 µM and the IC50 was > 1070 µM. `CC(C)(C)C1=CC(=C(c2ccccc2)c2ccccc2)C=C(C(C)(C)C)C1=O`: the EC50 was > 47.9 µM and the IC50 is > 47.9 µM. In the case of `CCOC(=O)/C(=C/c1cccc(OC)c1)N(CC)CC`, the EC50 was > 182 µM and the IC50 is > 182 µM. Turning to `Cc1cn(C2CC(N=[N+]=[N-])C(COC(=O)CCCCCCCCCCCBr)O2)c(=O)[nH]c1=O` (configuration not stated), the result was active and the IC50 was 37.2 µM. In the case of `CNCS(=O)(=O)O`, the EC50 is > 200 µM and the IC50 is 97.7 µM.

On to `COc1ccc(C2=C/C(=C/c3ccc(N(CCC#N)CCC#N)cc3)C(=O)O2)cc1`, for which the EC50 is > 13.2 µM and the IC50 is > 13.2 µM. As to `O=[N+]([O-])c1ccc2nc(/C=C(\O)c3ccccc3)c(/C=C(\O)c3ccc(Cl)cc3)nc2c1`, the EC50 is > 100 µM and the IC50 is 11 µM. For the compound `CC(C)C(CCl)NC(=O)c1cccc(C(=O)N[C@H](CCl)C(C)C)n1` (stereo in doubt), the EC50 was > 69.2 µM and the IC50 is > 69.2 µM. For `O=C(c1ccc(Cl)cc1)c1cnc2nc(-c3ccccc3)c(-c3ccccc3)nn12`, the EC50 is > 1.78 µM and the IC50 is > 1.78 µM.

Take `CN(C)P1(=O)OCC2CCC[C@@H]2O1` (some centres not stated): the outcome was inactive. Take `CCNC(=O)c1ccccc1S(C)=O` (configuration not stated): the EC50 was > 200 µM and the IC50 was > 200 µM. For `CCOP(=O)(/C=C/c1cc(OC)ccc1OC)OCC`, the EC50 was > 832 µM; the IC50 is 355 µM and 158 µM. As for `Cc1cc(O)c(C=NC(=S)C(N)=S)c(=O)o1`, the EC50 is > 200 µM and the IC50 amounted to 41.7 µM.

Turning to `COc1ccccc1CNCCCCCCNCCSSCCNCCCCCCNCc1ccccc1OC`, the EC50 was > 200 µM and the IC50 was 57.5 µM. For `NC(CCOCCP(=O)(O)CCOCCC(N)C(=O)O)C(=O)O` (configuration not stated), the EC50 is > 200 µM and the IC50 is > 200 µM. For the compound `CCOP(=O)(C/C=C/CN(C(=O)OC(C)(C)C)C(=O)OC(C)(C)C)OCC`, the outcome was inactive. Take `CCO[C@@H]1N(C2CC(N=[N+]=[N-])C(CO)O2)C(=O)NC(=O)[C@]1(C)Cl` (some centres not stated): the EC50 was > 200 µM and the IC50 is > 200 µM. With `N#Cc1ccc(C(O)C(F)(F)c2nc3ccccc3o2)cc1` (configuration not stated), the EC50 is > 200 µM and the IC50 was > 200 µM.

Regarding `CCOC(=O)/C=C/SCCC(=O)OC`, the EC50 was > 1150 µM and the IC50 turned out to be 891 µM. With `O=C1Nc2cc([N+](=O)[O-])ccc2C(=O)N2CCC[C@@H]12`, the EC50 was > 200 µM and the IC50 was > 200 µM. For `CC(C)=CC(=O)Cc1nc2cc(C)c(C)cc2[nH]c1=O`, the result was inactive. Turning to `CCN(CC)CCN(C)c1ccc(/C=C/c2ccnc3ccccc23)cc1`, the result was inactive. As to `N#C/C1=C(\N)CCSSSC1`, the EC50 is > 457 µM and the IC50 was determined as 22.9 µM.

Regarding `CC1(c2ccccc2)N=C(C(N)=O)c2[nH]cnc2N1` (configuration not stated), the EC50 is > 200 µM and the IC50 was > 200 µM. Take `CC(=O)OC1C2CCC1C1C2N=NN1c1ccc([N+](=O)[O-])cc1` (configuration not stated): the EC50 is > 151 µM and the IC50 is > 151 µM.

Regarding `COc1ccc(CCN2C(=O)c3cccc4c(Br)ccc(c34)C2=O)cc1`, the EC50 is > 200 µM and the IC50 was 105 µM. With `CN(C)c1ccc(N=O)cc1`, the EC50 was > 2 µM and the IC50 came to 1.12 µM.

With `O=[N+]([O-])c1ccc(CSc2nncc3[nH]cnc23)cc1`, the EC50 is 31.6 µM and the IC50 was 63.1 µM. In the case of `O=C1CN(N2C(=O)CSC2C23CC4CC(CC(C4)C2)C3)C(=O)CN1c1ccccc1` (configuration not stated), the EC50 is > 151 µM and the IC50 was > 151 µM.

For `O=S(=O)(OC1CC12CCCCC2c1ccccc1)c1ccccc1` (configuration not stated), the EC50 is > 200 µM and the IC50 was > 200 µM. As for `CC(=O)NC1C(CO)OC(n2cnc([N+](=O)[O-])c2C(N)=O)C1O` (configuration not stated), the EC50 was > 200 µM and the IC50 was > 200 µM.

For the compound `COc1ccc(/C=C2/CCS(=O)(=O)c3ccc(C)cc3C2=O)cc1OC`, the EC50 is > 200 µM and the IC50 was determined as 6.03 µM. The matching figures for `CC(=O)OCC1OC(OC(C)=O)C(NC(=O)CI)C(OC(C)=O)C1OC(C)=O` (configuration not stated): > 490 µM and 2.57 µM. For the compound `NCCSSCc1ccccc1CSSCCN`, the outcome was inactive. With `Cc1ccc(S(=O)(=O)N/N=C/C2(c3ccccc3)c3ccccc3-c3ccccc32)cc1`, the EC50 is > 200 µM and the IC50 is 11.2 µM. Turning to `O=[N+]([O-])c1ccc(CSc2c3ccccc3nc3ccccc23)cc1`, the EC50 was > 200 µM and the IC50 was found to be 3.39 µM. Turning to `Cc1ccc(NP(=O)(Oc2ccccc2)N(CCCl)CCCl)cc1` (configuration not stated), the EC50 is > 35.5 µM and the IC50 was found to be 15.8 µM. With `CCOc1cccc2cccnc12`, the EC50 was > 200 µM and the concentration for half-maximal inhibition (IC50) is > 200 µM.

Turning to `CCn1cc(C(=O)O)c(=O)c2ccc(C)nc21`, the outcome was inactive. As for `CCN(CC)CCN1CC(=O)N2Cc3ccccc3CN2C(=O)C1`, the EC50 is > 200 µM and the IC50 is > 200 µM. For `C=C([C@@]1(O)C[C@H]2[C@H](CCC2(OC)OC)[C@@H]2c3ccccc3O[C@@H]21)[Si](C)(C)C`, the result was inactive. `Cc1n(Cc2ccccc2)c2c([n+]1C)C(=O)c1ccccc1C2=O`: the EC50 is > 562 µM and the IC50 is 0.178 µM. As for `CCN=C(N)CSS(=O)(=O)O`, the EC50 is > 200 µM and the IC50 was > 200 µM. On to `N[C@@H]1c2c(I)sc(I)c2C(=O)[C@@H]1O`, for which the EC50 was > 200 µM and the IC50 worked out at 5.25 µM.

As for `O=C(O)c1ccccc1CC1Cc2ccccc2C1`, the EC50 was > 200 µM and the IC50 is > 200 µM. As to `O=C(O)/C=C/S(=O)(=O)O`, the EC50 was > 200 µM and the IC50 is > 200 µM. As to `O=C(/C(=C/c1ccc(F)cc1)c1ccccc1)c1ccccc1`, the EC50 was > 6.61 µM and the IC50 was > 6.61 µM. Take `COc1ccc(NC(=O)/C(=C/N2C(=O)/C(=C/c3ccc(OC)c(OC)c3)NC2=S)C(C)=O)cc1`: the EC50 was > 200 µM and the IC50 was found to be 23.4 µM. As for `c1ccc2c(c1)CCc1c-2n(CCN2CCCCC2)c2ccccc12`, the EC50 was > 200 µM and the IC50 turned out to be 10.7 µM. Regarding `CN1CCN(c2ccc3nc(-c4ccc5nc(-c6ccc(O)cc6)[nH]c5c4)[nH]c3c2)CC1`, the EC50 was > 501 µM and the IC50 worked out at 3.89 µM. The like results for `N#CCc1nc(-c2cc3ccc(O)cc3oc2=O)cs1` were, in that order, > 200 µM and 26.9 µM. `O=C1CSCC(=O)O1`: the EC50 is > 1910 µM and the IC50 was > 1910 µM. Regarding `O=C1C2C3C=C4c5ccccc5N(c5ccccc5)C4(C2C(=O)N1c1ccc(Br)cc1)[C@H]1C(=O)N(c2ccc(Br)cc2)C(=O)[C@@H]31` (some centres not stated), the EC50 is > 5.25 µM and the IC50 was > 5.25 µM. Consider `CC(C)OP(=O)(OC(C)C)/C(I)=N/Nc1ccc([N+](=O)[O-])cc1`, for which the EC50 was > 110 µM and the IC50 was > 110 µM. For the compound `Clc1cc2cc3c(Br)coc3nc2cc1Cl`, the EC50 was > 16.2 µM and the IC50 is > 16.2 µM. In the case of `CCc1n[nH]c(=S)n1/N=C/c1ccc(-c2ccc([N+](=O)[O-])cc2)o1`, the EC50 was > 11 µM and the IC50 is > 11 µM. `CC(=O)NC(Cc1ccccc1)NC(=O)O` (configuration not stated): the EC50 was > 200 µM and the half-maximal inhibitory concentration (IC50) was > 200 µM. Turning to `COC(=O)N1CC2C3C4CC(C(c5ccccc5)=C4c4ccccc4)C3C21` (configuration not stated), the EC50 is > 200 µM and the IC50 was 29.5 µM.

For the compound `CCCCCCCCCCCCCCCCCCNC(=O)OCC(CNS(=O)(=O)CCC[n+]1cccc2ccccc21)COC` (configuration not stated), the EC50 is > 200 µM and the IC50 was 0.676 µM. On to `CC(=O)Nc1ncc2ccccc2c1-c1ccc(NC(=O)CN(CCO)CCO)cc1`, for which the EC50 was > 200 µM and the IC50 is > 200 µM.

As for `N#Cc1c(-c2ccco2)cc(-c2ccccc2)[nH]c1=O`, the EC50 was > 20 µM and the IC50 was > 20 µM.

For `COc1cc(OC)c2nc3ccccc3c(NCCCN(C)C)c2c1[N+](=O)[O-]`, the EC50 is > 200 µM and the IC50 is 20 µM.

Turning to `CN(C)[C@@H]1C(=O)C(C(N)=O)=C(O)[C@@]2(O)C(=O)C3=C(O)c4c(O)cccc4C[C@H]3C[C@@H]12`, the EC50 is > 200 µM and the IC50 was found to be 3.55 µM.

With `CC(CCC(=O)O)[C@H]1CCC2[C@@H]3CC(O)[C@@H]4CC(O)CC[C@]4(C)C3CC[C@@]21C` (some centres not stated), the EC50 is > 200 µM and the IC50 worked out at 72.4 µM.

In the case of `Cc1ccc(-c2cssc2=S)cc1`, the EC50 was > 200 µM and the IC50 is > 200 µM. `O=C(CSc1nnc(Cc2ccccc2)o1)Nc1ccc([N+](=O)[O-])cc1`: the EC50 was > 97.7 µM and the IC50 turned out to be 95.5 µM.

In the case of `N=c1oc2ccc3ccccc3c2cc1-c1nc2ccccc2c(=O)[nH]1`, the EC50 was > 50.1 µM and the IC50 came to 7.24 µM.
